Source: the supplement of paper PMC10307832

Legend:
Assay in all cases: relative viability (nuclei count vs DMSO), 5 days (fraction); higher = more cells survive
[1] = compound: C1=CC(=CC=C1C2=CC(=C(S2)NC(=O)N)C(=O)N)F [TPCA-1] + CC1(C)CCC(c2ccc(Cl)cc2)=C(CN2CCN(c3ccc(C(=O)NS(=O)(=O)c4ccc(N[C@H](CCN5CCOCC5)CSc5ccccc5)c(S(=O)(=O)C(F)(F)F)c4)cc3)CC2)C1 [Navitoclax] (partner 0.5 µM)
Method in brief: (§1)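 A single step with final 0.05% Triton X-100, 1% formaldehyde and 1 ug/ml Hoechst fixed the cells and stained nuclei 5 days after treatment. Lung cancer cell lines in 1536-well plates had been treated by pin tool the day after seeding with one drug alone or a fixed anchor-drug dose plus five library-drug doses (not always all listed) in √10 steps, and nuclei were counted on 4× images. Relative viability is the ratio of nuclei in treated wells to nuclei in vehicle wells, taken as the median of duplicate plates.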

[2] = compound: C[C@]12O[C@H](C[C@]1(O)CO)n1c3ccccc3c3c4c(c5c6ccccc6n2c5c31)CNC4=O [Lestaurtinib] + Nc1ncn([C@H]2C[C@H](O)[C@@H](CO)O2)c(=O)n1 [Decitabine] (partner 2 µM)
Method in brief: as §1

[3] = compound: C[C@]12O[C@H](C[C@]1(O)CO)n1c3ccccc3c3c4c(c5c6ccccc6n2c5c31)CNC4=O [Lestaurtinib] + NC(=O)Nc1cc(-c2cccc(F)c2)sc1C(=O)N[C@H]1CCCNC1 [AZD7762] (partner 0.2 µM)
Method in brief: as §1

[4] = compound: C[C@]12O[C@H](C[C@]1(O)CO)n1c3ccccc3c3c4c(c5c6ccccc6n2c5c31)CNC4=O [Lestaurtinib] + O=C(CCCCCCC(=O)Nc1ccccc1)NO [Vorinostat] (partner 1 µM)
Method in brief: as §1

Row | Cell Line | relative viability ([1]; first compound 0.04 µM) | relative viability ([1]; first compound 0.1265 µM) | relative viability ([1]; first compound 0.4 µM) | relative viability ([1]; first compound 1.265 µM) | relative viability ([1]; first compound 4 µM) | relative viability ([2]; first compound 0.005 µM) | relative viability ([2]; first compound 0.01581 µM) | relative viability ([2]; first compound 0.05 µM) | relative viability ([2]; first compound 0.1581 µM) | relative viability ([2]; first compound 0.5 µM) | relative viability ([3]; first compound 0.005 µM) | relative viability ([3]; first compound 0.01581 µM) | relative viability ([3]; first compound 0.05 µM) | relative viability ([3]; first compound 0.1581 µM) | relative viability ([3]; first compound 0.5 µM) | relative viability ([4]; first compound 0.005 µM) | relative viability ([4]; first compound 0.01581 µM) | relative viability ([4]; first compound 0.05 µM) | relative viability ([4]; first compound 0.1581 µM) | relative viability ([4]; first compound 0.5 µM)
1 | NCI-H2170 | 0.666 | 0.52 | 0.497 | 0.559 | 0.264 | 0.461 | 0.489 | 0.441 | 0.43 | 0.383 | 0.847 | 0.784 | 0.655 | 0.83 | 0.241 | 0.745 | 0.69 | 0.536 | 0.521 | 0.199
2 | HCC-366 | 1.01 | 0.942 | 1.14 | 0.952 | 1 | 0.408 | 0.343 | 0.378 | 0.365 | 0.222 | 0.315 | 0.305 | 0.339 | 0.447 | 0.556 | 0.351 | 0.469 | 0.335 | 0.317 | 0.19
3 | NCI-H2347 | 0.788 | 0.855 | 0.726 | 0.568 | 0.762 | 0.587 | 0.651 | 0.57 | 0.512 | 0.496 | 0.7 | 0.83 | 0.648 | 0.568 | 0.466 | 0.508 | 0.643 | 0.555 | 0.469 | 0.503
4 | COR-L 105 | 0.964 | 0.642 | 0.962 | 0.636 | 0.64 | 0.687 | 0.663 | 0.582 | 0.505 | 0.385 |  |  |  |  |  | 0.949 | 0.676 | 0.678 | 0.445 | 0.402
5 | 201T | 1.2 | 1.17 | 1.19 | 1.2 | 1.25 | 0.858 | 0.93 | 0.98 | 0.934 | 0.926 | 0.589 | 0.656 | 0.53 | 0.92 | 0.776 | 1.03 | 1.12 | 1.01 | 0.927 | 0.771
6 | NCI-H2126 | 0.866 | 0.791 | 0.899 | 0.812 | 0.767 | 0.582 | 0.593 | 0.623 | 0.536 | 0.553 | 1.04 | 1.01 | 0.877 | 0.988 | 0.813 | 0.805 | 0.886 | 0.693 | 0.599 | 0.465
7 | LC-2-ad | 0.361 | 0.377 | 0.414 | 0.357 | 0.11 | 0.912 | 0.829 | 0.755 | 0.654 | 0.476 | 0.892 | 0.908 | 0.558 | 0.409 | 0.225 | 0.713 | 0.768 | 0.41 | 0.296 | 0.203
8 | NCI-H2085 | 1.14 | 1.1 | 1.2 | 1.12 | 1.13 | 0.55 | 0.583 | 0.664 | 0.597 | 0.551 | 0.917 | 0.938 | 0.941 | 0.98 | 0.827 | 0.741 | 0.812 | 0.869 | 0.751 | 0.661
9 | NCI-H358 |  |  |  |  |  | 0.219 | 0.212 | 0.15 | 0.12 | 0.144 | 0.485 | 0.413 | 0.432 | 0.298 | 0.253 | 0.691 | 0.539 | 0.382 | 0.145 | 0.117
10 | H3255 | 0.536 | 0.507 | 0.473 | 0.396 | 0.242 | 0.792 | 0.565 | 0.562 | 0.512 | 0.366 | 0.961 | 0.945 | 0.866 | 0.879 | 0.543 | 0.769 | 0.928 | 0.752 | 0.651 | 0.402
11 | NCI-H2228 | 0.758 | 0.68 | 1.18 | 0.656 | 0.595 |  |  |  |  |  |  |  |  |  |  | 0.601 | 0.779 | 0.352 | 0.228 | 0.211
12 | CAL-12T | 1.1 | 1.15 | 1.17 | 1.16 | 1.11 |  |  |  |  |  | 0.573 | 0.813 | 0.557 | 0.599 | 0.54 | 0.793 | 0.881 | 0.622 | 0.484 | 0.241
13 | A-427 | 0.945 | 0.898 | 0.997 | 0.899 | 0.93 | 0.548 | 0.544 | 0.518 | 0.347 | 0.2 | 0.712 | 0.755 | 0.645 | 0.433 | 0.215 | 0.778 | 0.995 | 0.766 | 0.447 | 0.208
14 | HARA | 1.13 | 1.08 | 1.16 | 1.08 | 1.08 | 0.699 | 0.749 | 0.613 | 0.513 | 0.214 | 0.287 | 0.392 | 0.282 | 0.294 | 0.307 | 0.559 | 0.648 | 0.53 | 0.311 | 0.104
15 | NCI-H1793 | 0.425 | 0.354 | 0.413 | 0.342 | 0.319 | 0.506 | 0.481 | 0.459 | 0.542 | 0.421 | 0.406 | 0.485 | 0.357 | 0.422 | 0.303 | 0.531 | 0.884 | 0.561 | 0.524 | 0.252
16 | NCI-H2009 | 1.2 | 1.18 | 1.08 | 1.19 | 1.12 | 0.373 | 0.392 | 0.399 | 0.36 | 0.347 |  |  |  |  |  | 0.782 | 0.759 | 0.665 | 0.689 | 0.501
17 | ABC-1 |  |  |  |  |  | 1.31 | 1.36 | 1.12 | 0.96 | 0.66 | 0.59 | 1.09 | 0.692 | 0.76 | 0.593 | 1.02 | 1.2 | 1.03 | 0.887 | 0.329
18 | IA-LM | 0.855 | 0.595 | 0.72 | 0.617 | 0.678 |  |  |  |  |  |  |  |  |  |  | 1.2 | 1.05 | 1.02 | 1.33 | 0.625
